From patent publication US20030207863A1, “Preventives and remedies for central nervous system diseases” (priority 2000, published 2003)

Tested on: IMR32 cells
Assay: Amyloid β protein in culture supernatant of IMR32 cells after addition of urotensin II, by enzyme immunoassay
Type: cell-based
Conditions: cultured 24 hours
Procedure: Test compound 1 was added to IMR32 cells at various concentrations (μM) 10 minutes before addition of 10 nM of urotensin II. Then, urotensin II was added in the presence or absence of test compound 1, the mixture was cultured for 24 hours, and the amount of amyloid β protein in the supernatant of the culture was determined by enzyme immunoassay (Biochemistry, Vol.34, No.32, pp. 10272-10278, (1995)). Test compound 2 as described hereinafter (the compound of Synthesis Example 5) was used and added at a concentration of 1 nM, and the amount of amyloid β protein was determined in the same manner as that of Experimental Example 1. Namely, IMR32 cells were used and test compound 2 was added at a concentration of 1 nM 10 minutes before addition of 10 nM of urotensin II. After addition of urotensin II, the mixture was cultured for 24 hours and the amount of amyloid β protein in the supernatant of the culture was determined by enzyme immunoassay.

Row | SMILES | suppression of increase in the selective secretion of amyloid β40 by urotensin II (test compound at various concentrations (μM) added 10 minutes before 10 nM urotensin II, FIG. 1) | suppression of increase of amyloid β40 by urotensin II (test compound at 1 nM added 10 minutes before 10 nM urotensin II, FIG. 2)
1 | Cc1ccc2nc3c(c(N)c2c1)CCN3Cc1ccccc1 [test compound 1] | concentration-dependently suppressed | 
2 | Cl.NS(=O)(=O)c1ccc(CCN(Cc2cccc(-c3cccc(C(=O)NCCN4CCCC4)c3)c2)C(=O)CCCc2ccccc2)cc1 [test compound 2, 3′-{({2-[4-(Aminosulfonyl)phenyl]ethyl}[4-phenylbutanoyl]amino)methyl}-N-[2-(1-pyrrolidinyl)ethyl][1,1′-biphenyl]-3-carboxamide Hydrochloride] |  | completely suppressed
